Experimental data reported in ChEMBL document CHEMBL5518165, “M335, a novel small-molecule STING agonist activates the immune response and exerts antitumor effects” (Eur J Med Chem, 2024).
Calls of active or inactive are those of the source. The calls are words filed in the database; no cut-off is given here.

What was measured:
[1] = biological target: Stimulator of interferon genes protein (Homo sapiens) (UniProt Q86WV6); assay: Agonist activity at STING in human THP-1 cells assessed as increase in TBK1 phosphorylation incubated for 4 hrs by Western blotting analysis; type: cell-based; conditions: filed as agonist, dose 5-40 µM
[2] = biological target: Stimulator of interferon genes protein (Homo sapiens) (UniProt Q86WV6); assay: Agonist activity at STING in human THP-1 cells assessed as increase in LC3 protein level at 20 uM measured for 4 hrs by Western blotting analysis; type: cell-based; conditions: filed as agonist
[3] = biological target: Stimulator of interferon genes protein (Homo sapiens) (UniProt Q86WV6); assay: Agonist activity at STING in human THP-1 cells assessed as TBK1 phosphorylation at 20 uM measured for 4 hrs in presence of H-151 by Western blotting analysis; type: cell-based
[4] = biological target: Stimulator of interferon genes protein (Homo sapiens) (UniProt Q86WV6); assay: Agonist activity at STING in human THP-1 cells assessed as increase in ISG15 mRNA level at 20 uM measured for 4 hrs by qPCR analysis; type: cell-based; conditions: filed as agonist
[5] = test system: THP-1; assay: Upregulation of IFNB mRNA level in STING-knockout human THP-1 cells at 20 uM measured for 4 hrs by qPCR analysis; type: functional, cell-based
[6] = test system: THP-1; assay: Upregulation of CXCL10 mRNA level in STING-knockout human THP-1 cells at 20 uM measured for 4 hrs by qPCR analysis; type: functional, cell-based
[7] = test system: THP-1; assay: Upregulation of IL6 mRNA level in STING-knockout human THP-1 cells at 20 uM measured for 4 hrs by qPCR analysis; type: functional, cell-based
[8] = biological target: Stimulator of interferon genes protein (Homo sapiens) (UniProt Q86WV6); assay: Agonist activity at STING in human THP-1 cells assessed as decrease in STING monomer level at 5 to 40 uM by Western blotting analysis; type: cell-based; conditions: filed as agonist, dose 5-40 µM
[9] = biological target: T1, Stimulator of interferon genes protein (Mus musculus) (UniProt Q3TBT3); assay: Agonist activity at STING in MEF cells assessed as STING translocation by measuring aggregation of green fluorescence incubated for 1 hr by laser scanning confocal microscope analysis; type: cell-based; conditions: filed as agonist
T1 sequence (whole entry): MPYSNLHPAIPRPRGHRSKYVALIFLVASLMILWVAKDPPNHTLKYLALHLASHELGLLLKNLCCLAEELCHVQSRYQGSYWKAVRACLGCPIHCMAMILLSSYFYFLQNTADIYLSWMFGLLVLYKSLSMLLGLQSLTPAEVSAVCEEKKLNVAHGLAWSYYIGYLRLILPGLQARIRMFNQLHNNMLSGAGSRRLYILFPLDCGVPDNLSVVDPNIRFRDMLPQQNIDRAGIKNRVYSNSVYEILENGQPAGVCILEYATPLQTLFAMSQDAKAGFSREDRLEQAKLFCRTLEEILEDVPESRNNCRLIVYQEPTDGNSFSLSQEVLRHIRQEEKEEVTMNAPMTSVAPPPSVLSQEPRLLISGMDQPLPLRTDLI

[10] = biological target: T1, Stimulator of interferon genes protein (Mus musculus); assay: Agonist activity at STING in MEF cells assessed as nuclear transposition of phosphorylated IRF3 incubated for 1 hr by laser scanning confocal microscope analysis; type: cell-based; conditions: filed as agonist
[11] = biological target: Stimulator of interferon genes protein (Homo sapiens) (UniProt Q86WV6); assay: Binding affinity to STING CTD (unknown origin) at 3.125 to 200 uM by surface plasmon resonance analysis; conditions: filed as agonist, dose 3.125-200 µM
[12] = biological target: Stimulator of interferon genes protein (Homo sapiens) (UniProt Q86WV6); assay: Binding affinity to human STING CTD assessed as decrease in protein stability by Western blotting analysis; conditions: filed as agonist
[13] = test system: Human alphaherpesvirus 1; assay: Antiviral activity against HSV-1-GFP infected in human THP-1 cells assessed as reduction in viral infection pre-infected with virus for 24 hrs followed by compound addition and measured after 6 hrs by flow cytometry analysis; type: functional, organism-based; conditions: dose 10-30 µM
[14] = test system: Human alphaherpesvirus 1; assay: Antiviral activity against HSV-1-GFP infected in human THP-1 cells assessed as reduction in proportion of infected cells pre-infected […] for 24 hrs followed by compound addition and measured after 6 hrs by flow cytometry analysis; type: functional, organism-based; conditions: dose 10-30 µM
[15] = test system: Human alphaherpesvirus 1; assay: Antiviral activity against HSV-1-GFP infected in human STING overexpressing HeLa cells assessed as reduction in viral infection by fluorescent microscopy analysis; type: functional, organism-based
[16] = Toxicity in C57/BL6 mouse xenografted with mouse MC38 cells assessed as organ damage at 300 ug, IT administered every 2 days by hematoxylin and eosin staining based histological analysis; type: cell-based, MC-38; conditions: in vivo, other, 48 h, dose 300 µg
[17] = test system: MC-38; assay: Induction of apoptosis in mouse MC38 cells allografted in C57/BL6 mouse a at 300 ug, IT administered every 2 days; type: functional, cell-based; conditions: dose 300.0 µg
[18] = test system: MC-38; assay: Antitumor activity against mouse MC38 cells allografted in C57/BL6 mouse assessed as increase in CD45+ T cells in tumor tissue at 300 ug, IT administered every 2 days by flow cytometry analysis; type: functional, cell-based; conditions: dose 300.0 µg
[19] = test system: MC-38; assay: Antitumor activity against mouse MC38 cells allografted in C57/BL6 mouse assessed as increase in NK cells in spleen at 300 ug, IT administered every 2 days by flow cytometry analysis (reference value: 3.95%); type: functional; conditions: dose 300 µg, time 2 day
[20] = test system: MC-38; assay: Antitumor activity against mouse MC38 cells allografted in C57/BL6 mouse assessed as increase in NK cells in tumor tissue at 300 ug, IT administered every 2 days by flow cytometry analysis (reference value: 14%); type: functional; conditions: dose 300 µg, time 2 day
[21] = test system: MC-38; assay: Antitumor activity against mouse MC38 cells allografted in C57/BL6 mouse assessed as increase in CD8+ T cell numbers in spleen at 300 ug, IT administered every 2 days by immunohistochemical staining based analysis; type: functional; conditions: dose 300.0 µg
[22] = test system: MC-38; assay: Antitumor activity against mouse MC38 cells allografted in C57/BL6 mouse assessed as increase in IL-6 level in serum at 300 ug, IT administered every 2 days by ELISA; type: functional, cell-based; conditions: dose 300.0 µg
[23] = test system: CT26; assay: Antitumor activity against mouse CT26 cells allografted in […] mouse assessed as reduction in tumor development at 300 ug, IT administered every 2 days; type: functional, cell-based; conditions: dose 300.0 µg
[24] = test system: CT26; assay: Antitumor activity against mouse CT26 cells allografted in […] mouse assessed as augmentation of CD45+ cells in spleen at 5 mg/kg, ip administered every 2 days (reference value: 35.1%); type: functional
[25] = test system: CT26; assay: Antitumor activity against mouse CT26 cells […] mouse assessed as augmentation of CD3+ T cells in spleen at 20 mg/kg, ip administered every 2 days (reference value: 13.9%); type: functional
[26] = test system: CT26; assay: Antitumor activity against mouse CT26 cells […] mouse assessed as augmentation of CD8+ T cells in spleen at 10 mg/kg, ip administered every 2 days (reference value: 6.99%); type: functional
[27] = biological target: Stimulator of interferon genes protein (Homo sapiens) (UniProt Q86WV6); assay: Agonist activity at STING in human THP-1 cells at 50 uM; type: cell-based; conditions: filed as agonist
[28] = biological target: Stimulator of interferon genes protein (Homo sapiens) (UniProt Q86WV6); assay: Agonist activity at STING in human THP-1 cells assessed as upregulation of interferon stimulated genes at 20 uM by RNA sequencing analysis; type: cell-based; conditions: filed as agonist
[29] = biological target: Stimulator of interferon genes protein (Homo sapiens) (UniProt Q86WV6); assay: Agonist activity at STING in human THP-1 cells assessed as upregulation of type-1 interferon signaling pathway by gene ontology analysis; type: cell-based; conditions: filed as agonist
[30] = biological target: Stimulator of interferon genes protein (Homo sapiens) (UniProt Q86WV6); assay: Agonist activity at STING in human THP-1 cells assessed as upregulation of DNA replication related genes by gene ontology analysis; type: cell-based; conditions: filed as agonist
[31] = biological target: Stimulator of interferon genes protein (Homo sapiens) (UniProt Q86WV6); assay: Agonist activity at STING in human THP-1 cells assessed as upregulation of IFNgamma related genes by GSEA; type: cell-based; conditions: filed as agonist

Chain of Stimulator of interferon genes protein (Homo sapiens) (Q86WV6 whole entry): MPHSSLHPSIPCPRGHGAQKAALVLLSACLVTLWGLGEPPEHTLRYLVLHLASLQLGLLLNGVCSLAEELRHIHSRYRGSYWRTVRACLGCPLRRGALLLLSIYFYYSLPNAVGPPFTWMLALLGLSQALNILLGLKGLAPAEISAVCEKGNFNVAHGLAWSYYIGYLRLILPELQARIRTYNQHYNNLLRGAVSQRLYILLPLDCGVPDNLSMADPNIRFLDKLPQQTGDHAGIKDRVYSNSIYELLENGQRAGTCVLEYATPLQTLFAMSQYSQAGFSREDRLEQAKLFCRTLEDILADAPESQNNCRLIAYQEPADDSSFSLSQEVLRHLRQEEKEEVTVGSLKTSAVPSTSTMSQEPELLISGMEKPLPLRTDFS

Question: What does the source list for `CC(NCCC(c1ccccc1)c1ccccc1)c1ccccc1` (stereo unspecified) [FENDILINE]?
Answer: Activity [1]: Dose-Dependent Effect; Activity [2]: Active; Activity [3]: inactive; Activity [4]: Active; Activity [5]: inactive; Activity [6]: inactive; Activity [7]: inactive; Activity [8]: Active; Activity [9]: Active; Activity [10]: Active; Activity [11]: Active; Activity [12]: Active; Activity [13]: Dose-Dependent Effect; Activity [14]: Dose-Dependent Effect; Activity [15]: Active; Activity [16]: Non-Toxic; Activity [17]: inactive; Activity [18]: Active; Activity [19]: 5.94%; Activity [20]: 24%; Activity [21]: Active; Activity [22]: Active; Activity [23]: Active; Activity [24]: 42.5%; Activity [25]: 41.4%; Activity [26]: 15.1%; Activity [27]: Active; Activity [28]: Active; Activity [29]: Active; Activity [30]: Active; Activity [31]: Active
